Experimental data taken from US10315992B2, “Tetracyline compounds” (Tetraphase Pharmaceuticals, Inc., priority 2012, dated 2019).
Converted amounts (≈) assume the structure as drawn. Where two headings read alike, the source gives them in different places.

System: Burkholderia cenocepacia BC240 (cystic fibrosis isolate, MDR)
Test: MIC assay, BC240
Format: cell-based
Details: for MIC BC 240: B. cenocepacia MDR; for MIC: Burkholderia cenocepacia

| SMILES | MIC BC 240 (Table 5) | MIC BC 240 (Table 7) | MIC | MIC (read-out: MIC BC 240) |
| --- | --- | --- | --- | --- |
| CN(C)[C@@H]1C(O)=C(C(N)=O)C(=O)[C@@]2(O)C(O)=C3C(=O)c4c(O)cccc4C[C@H]3C[C@@H]12 [Sancycline, sancycline] | 4 µg/mL (≈ 9.65 µM) | 4 µg/mL (≈ 9.65 µM) | 4 µg/mL (≈ 9.65 µM) | 4 µg/mL (≈ 9.65 µM) |
| CN(C)c1cc(NC(=O)CNC(C)(C)C)c(O)c2c1C[C@H]1C[C@H]3[C@H](N(C)C)C(O)=C(C(N)=O)C(=O)[C@@]3(O)C(O)=C1C2=O [Tigecycline, tigecycline] | 16 µg/mL (≈ 27.3 µM) | 16 µg/mL (≈ 27.3 µM) | 16 µg/mL (≈ 27.3 µM) | 16 µg/mL (≈ 27.3 µM) |
